Laboratory results as given in article PMC11893521, “Examining Farnesyltransferase Interaction With Cell‐Permeable CaaX Peptides and the Role of the CaaX Motif in Biological Activity” (Journal of Peptide Science, 2025).
Peptide text beside a SMILES is read from it.

Experiments:
rFTase = target: T1, rFTase (Rattus norvegicus, UniProt Q02293+Q04631); assay: Mass spectrometry-based farnesylation assay (rFTase); format: biochemical; conditions: each peptide 18 h at 37°C with rFTase and FPP, LC-ESI-MS
T1 construct: purchased Jena Bioscience PR-102
Protocol: […] CaaX‐1 or scrambled control was incubated with 50‐nM recombinantly expressed hFTase or rFTase (Jena Bioscience, Cat#PR‐102) and 10‐μM farnesyl pyrophosphate (FPP) in reaction buffer (50‐mM Tris HCl pH 7.5, 5‐mM DTT, 5‐mM MgCl2, 10‐μM ZnCl2, and 0.2% n‐octyl‐beta‐D‐glucopyranoside) at 37°C for 18 h. Afterwards, the reaction mixture was desalted via C18 ZipTips (Merck Millipore). For this, ZipTips were washed with ACN and equilibrated in 0.1% FA in H2O. Then, the column was loaded with the reaction solution and subsequently washed with 0.1% FA in H2O and 5% MeOH in H2O each supplemented with 0.1% FA. Elution was performed using 50% ACN with 0.1% FA, and the eluted solution was analyzed by RP‐HPLC using a linear gradient of 10%–60% ACN in H2O with 0.1% FA or TFA using a flow rate of 0.6 or 1.0 mL/min, respectively, and by ESI‐MS analysis (LTQ‐XL, Thermo Scientific, Waltham, Massachusetts, USA).

HeLa cells = assay: Resazurin-based cytotoxicity assay; format: cell-based; conditions: serum-free medium, 24 h, triplicate (n = 3)
Protocol: Cytotoxicity of the peptides to HeLa cells were investigated using a resazurin‐based cytotoxicity assay (Sigma Aldrich). For this, 14,000 HeLa cells were seeded in a 96‐well plate and grown in complete medium at 37°C to 80%–90% subconfluency. Cells were treated with different peptide dilutions in serum‐free medium at 37°C for 24 h. Untreated cells served as negative control and cells treated with 70% ethanol for 10 min as positive control. Cells were washed with PBS and subsequently incubated with a 10% resazurin solution in serum‐free medium for ~1 h. To determine the viability of the cells, the fluorescence was measured at 595 nm after excitation at 550 nm using a Tecan infinite M200 plate reader.

Row | SMILES | farnesylation by rFTase (CaaX-1 versus scrambled controls) (rFTase) | cytotoxicity to HeLa cells at 100 μM (HeLa cells)
1 | CC[C@H](C)[C@H](NC(=O)[C@H](CS)NC(=O)[C@H](CCCCN)NC(=O)[C@H](CCCCN)NC(=O)[C@H](CC(N)=O)NC(=O)[C@H](CCCNC(=N)N)NC(=O)[C@H](Cc1ccccc1)NC(=O)[C@H](CCCCN)NC(=O)[C@H](CCCNC(=N)N)NC(=O)[C@H](CC(C)C)NC(=O)[C@H](CCCNC(=N)N)NC(=O)[C@H](CCCCN)NC(=O)[C@H](CCCNC(=N)N)NC(=O)[C@H](CC(C)C)NC(=O)CN)C(=O)N[C@@H](CCCCN)C(=O)N[C@H](C(=O)N[C@@H](CCSC)C(=O)N[C@H](C(=O)N[C@@H](CO)C(=O)O)[C@@H](C)O)C(C)C [CaaX‐1hscr] (H-GLRKRLRKFRNKKCIKVMTS-OH) | lack of catalytic conversion | slight toxicity
2 | CC[C@H](C)[C@H](N)C(=O)N[C@H](C(=O)N[C@@H](Cc1ccccc1)C(=O)N[C@@H](CCCNC(=N)N)C(=O)N[C@@H](CCCCN)C(=O)N[C@@H](CCCCN)C(=O)N[C@@H](CC(C)C)C(=O)N[C@@H](CCCNC(=N)N)C(=O)N[C@@H](CCCCN)C(=O)N[C@@H](CCCCN)C(=O)N[C@@H](CS)C(=O)N[C@@H](CO)C(=O)N[C@@H](CCCCN)C(=O)NCC(=O)N[C@@H](CC(C)C)C(=O)N[C@H](C(=O)N[C@@H](CCCNC(=N)N)C(=O)N[C@@H](CCCNC(=N)N)C(=O)N[C@@H](CC(N)=O)C(=O)N[C@@H](CCSC)C(=O)O)C(C)C)[C@@H](C)O [scrCaaX‐1] (H-ITFRKKLRKKCSKGLVRRNM-OH) | lack of catalytic conversion | 
